Reference: US5776944A, “7-(4-aminomethyl-3-methyloxyiminopyrroplidin-1-yl)-1-cyclopropyl-6-flu oro-4-oxo-1,4-dihydro-1,8-naphthyridine-3-carboxylic acid and the process for the preparation thereof” (LG Chemical Ltd., priority 1994, dated 1998)
Converted amounts (≈) assume the structure as drawn.

Experiments:
[1] = Moisture content according to hydration number; assay type: physicochemical; details: actual moisture content, methanesulfonate hydrates
Description: The moisture content of the hydrate varies with the hydration number (n) of the hydrated molecule. Since the molecular weight of 7-(4-amino-methyl-3-methyloxylminopyrrolidin-1-yl)-1-cyclopropyl-6-fluoro- 4-oxo-1,4-dihydro-1,8-naphthyridine-3-carboxylic acid methanesulfonate is 485.5, the moisture content of the hydrate for n equal to 1, 1.5, 2, 2.5, 3, 3.5 or 4 is calculated to be 3.6%, […], 6.9%, 8.5%, 10.0%, 11.5% or 12.9%, respectively. However, the actual moisture content may differ from the calculated moisture content depending on differences in recrystallization conditions, drying conditions, etc.

[2] = system: Klebsiella aerogenes 1082E; test: In vitro antibacterial activity (MIC, agar medium dilution), Biological Example 4; assay type: cell-based; details: 18 h, Table 31, read-out: Minimum Inhibitory Concentration: MIC
Bacillus subtilis 6633 = test: as above; assay type: cell-based; details: 18 h; Bacillus subtilis 6633, Table 31; read-out: Minimum Inhibitory Concentration: MIC
[3] = system: Klebsiella aerogenes 1976E; test: as above; assay type: cell-based; details: 18 h, Table 31, read-out: Minimum Inhibitory Concentration: MIC
Staphylococcus aureus 77 = test: as above; assay type: cell-based; details: 18 h; Staphylococcus aureus 77, Table 31; read-out: Minimum Inhibitory Concentration: MIC
Escherichia coli 10536 = test: as above; assay type: cell-based; details: Escherichia coli, 10536, 18 h, Escherichia coli 10536, Table 31; read-out: Minimum Inhibitory Concentration: MIC
[4] = system: Pseudomonas aeruginosa 10145; test: as above; assay type: cell-based; details: Pseudomonas aeruginosa, 10145, 18 h, Pseudomonas aeruginosa 10145, Table 31; read-out: Minimum Inhibitory Concentration: MIC
Seratis marsecence 1826E = test: as above; assay type: cell-based; details: 18 h, Table 31, read-out: Minimum Inhibitory Concentration: MIC
Description: (§1) In order to determine the antibacterial activitiers of the E- and Z-isomner of the compound 180 which were separated in Example 203, and of 7- (4-aminomethyl-3-methyloxylminopyrrolidin-1-yl)-1-cyclopropyl-6-fluoro-4-oxo-1,4-dihydro-1,8-naphthyridine-3-carboxylic acid methanesulfonate prepared in Example 204, in vitro antibacterial activities of them were measured using agar medium dilution method. The results were as described in the following Tables 31 and 32.

[5] = system: Pseudomonas aeruginosa 6065Y; test: as above; assay type: cell-based; details: 18 h, Table 31, read-out: Minimum Inhibitory Concentration: MIC
Description: as §1

Micrococcus luteus 9341 = test: as above; assay type: cell-based; details: 18 h; Micrococcus luteus 9341, Table 31; read-out: Minimum Inhibitory Concentration: MIC
[6] = system: Escherichia coli TEM3 3455E; test: as above; assay type: cell-based; details: TEM33455E, 18 h, read-out: Minimum Inhibitory Concentration: MIC, Escherichia coli TEM3 3455E, Table 31
Enterobacter cloacae P99 = test: microbe, parasite or virus in culture; assay type: cell-based; details: P99, 18 h, read-out: Minimum Inhibitory Concentration: MIC
Proteus vulgaris 6059 = test: In vitro antibacterial activity (MIC, agar medium dilution), Biological Example 4; assay type: cell-based; details: 18 h; Proteus vulgaris 6059, Table 31; read-out: Minimum Inhibitory Concentration: MIC
[7] = system: Escherichia coli TEM9 2639E; test: as above; assay type: cell-based; details: TEM92639E, 18 h, read-out: Minimum Inhibitory Concentration: MIC
[8] = system: Staphylococcus aureus giorgio; test: as above; assay type: cell-based; details: 18 h, Table 31, read-out: Minimum Inhibitory Concentration: MIC
[9] = system: Staphylococcus aureus 241; test: as above; assay type: cell-based; details: Staphylococcus aureus, 241, 18 h, Staphylococcus aureus 241, Table 31; read-out: Minimum Inhibitory Concentration: MIC
[10] = system: Enterobacter cloacae 1194E; test: microbe, parasite or virus in culture; assay type: cell-based; details: 18 h, read-out: Minimum Inhibitory Concentration: MIC
[11] = system: Citrobacter diversus 2046E; test: In vitro antibacterial activity (MIC, agar medium dilution), Biological Example 4; assay type: cell-based; details: Citrobacter koseri, 18 h, Table 31, read-out: Minimum Inhibitory Concentration: MIC
[12] = system: Salmonella thypimurium 14028; test: as above; assay type: cell-based; details: 18 h; Salmonella thypimurium 14028, Table 31; read-out: Minimum Inhibitory Concentration: MIC
[13] = system: Escherichia coli TEM5 3739E; test: as above; assay type: cell-based; details: TEM53739E, 18 h, read-out: Minimum Inhibitory Concentration: MIC
[14] = system: Streptococcus faecalis 29212; test: as above; assay type: cell-based; details: Enterococcus faecalis, 29212, 18 h, Streptococcus faecalis 29212, Table 31; read-out: Minimum Inhibitory Concentration: MIC
Escherichia coli 3190Y = test: as above; assay type: cell-based; details: 18 h, Table 31, read-out: Minimum Inhibitory Concentration: MIC
[15] = system: Pseudomonas aeruginosa 1912E; test: as above; assay type: cell-based; details: 18 h, Table 31, read-out: Minimum Inhibitory Concentration: MIC
[16] = system: Staphylococcus epidermidis 178; test: as above; assay type: cell-based; details: 18 h; Staphylococcus epidermidis 178, Table 31; read-out: Minimum Inhibitory Concentration: MIC
[17] = system: Staphylococcus aureus 6538p; test: as above; assay type: cell-based; details: 18 h, Table 31, read-out: Minimum Inhibitory Concentration: MIC
Escherichia coli 851E = test: as above; assay type: cell-based; details: 18 h, Table 31, read-out: Minimum Inhibitory Concentration: MIC
[18] = system: Staphylococcus epidermidis 887E; test: as above; assay type: cell-based; details: 18 h, Staphylococcus epidermidis 887E, Table 31, read-out: Minimum Inhibitory Concentration: MIC
test strains = test: In vitro antibacterial activity, overall finding, Biological Example 4; assay type: cell-based; details: Tables 31 and 32
Description: as §1

[19] = system: Acinetobacter calcoaceticus 15473; test: In vitro antibacterial activity (MIC, agar medium dilution), Biological Example 4; assay type: cell-based; details: 18 h; Acinetobacter calcoaceticus 15473, Table 31; read-out: Minimum Inhibitory Concentration: MIC
[20] = Equilibrium moisture content determination of hydrates; assay type: physicochemical
Description: Six saturated aqueous salt solutions were introduced into each desiccator to control the inner relative humidity to a specific value as represented in the following Table 28. Then, equilibrium moisture contents of 3 hydrate and 1.5 hydrate prepared in Examples 205 and 206, respectively, were determined at several relative humidities.
Specifically, 100 mg of the sample was spread on a preweighed Petri dish and the total weight was accurately measured, then three of the sample were placed in each desiccator of Table 28. The desiccators were allowed to stand at normal temperature for 7 days and then the sample was taken to be weighed. After 13 days had passed, one of the three samples inside each desiccator was taken and the moisture content of each was measured by the thermogravimetric analysis described in Test Example 2. Equilibrium moisture content at each relative humidity is represented in FIG. 3 (3 hydrate), and FIG. 4 (1.5 hydrate). […] Both hydrates are stable since they keep a constant equilibrium moisture content regardless of the relative humidity change.

[21] = Chemical stability under heating; details: for thermal stability: hydrate
Description: The anhydride and each of the hydrates was introduced into a glass vial and maintained at 70° C.

Structure (SMILES)	Moisture Content [1]	MIC [2] [µg/mL]	MIC (Bacillus subtilis 6633) [µg/mL]	MIC [3] [µg/mL]	MIC (Staphylococcus aureus 77) [µg/mL]	MIC (Escherichia coli 10536) [µg/mL]	MIC [4] [µg/mL]	MIC (Seratis marsecence 1826E) [µg/mL]	MIC [5] [µg/mL]	MIC (Micrococcus luteus 9341) [µg/mL]	MIC [6] [µg/mL]	MIC (Enterobacter cloacae P99) [µg/mL]	MIC (Proteus vulgaris 6059) [µg/mL]	MIC [7] [µg/mL]	MIC [8] [µg/mL]	MIC [9] [µg/mL]	MIC [10] [µg/mL]	MIC [11] [µg/mL]	MIC [12] [µg/mL]	MIC [13] [µg/mL]	also measured
CON=C1CN(c2nc3c(cc2F)c(=O)c(C(=O)O)cn3C2CC2)CC1CN (stereo not drawn) [1 hydrate, 7-(4-aminomethyl-3-methyloxylminopyrrolidin-1-yl)-1-cyclopropyl-6-fluoro-4-oxo-1,4-dihydro-1,8-naphthyridine-3-carboxylic acid methanesulfonate]	2-4%	–	–	–	–	–	–	–	–	–	–	–	–	–	–	–	–	–	–	–	–
CO/N=C1\CN(c2nc3c(cc2F)c(=O)c(C(=O)O)cn3C2CC2)CC1CN (stereo not drawn) [Z-isomer]	–	0.031 (≈ 0.0796 µM)	≤ 0.008	0.063 (≈ 0.162 µM)	0.031 (≈ 0.0796 µM)	≤ 0.008	0.5 (≈ 1.28 µM)	0.25 (≈ 0.642 µM)	8 (≈ 20.5 µM)	0.13 (≈ 0.334 µM)	0.13 (≈ 0.334 µM)	≤ 0.008	0.25 (≈ 0.642 µM)	0.031 (≈ 0.0796 µM)	≤ 0.008	4 (≈ 10.3 µM)	0.031 (≈ 0.0796 µM)	0.031 (≈ 0.0796 µM)	0.031 (≈ 0.0796 µM)	0.13 (≈ 0.334 µM)	MIC [14]: 0.063 µg/mL (≈ 0.162 µM); MIC (Escherichia coli 3190Y): ≤ 0.008 µg/mL; MIC [15]: 0.5 µg/mL (≈ 1.28 µM); MIC [16]: 4 µg/mL (≈ 10.3 µM); MIC [17]: ≤ 0.008 µg/mL; MIC (Escherichia coli 851E): 0.016 µg/mL (≈ 0.0411 µM); MIC [18]: ≤ 0.008 µg/mL; antibacterial activity (test strains): superior antibacterial activity to the E-isomer; MIC [19]: 0.063 µg/mL (≈ 0.162 µM)
CON=C1CN(c2nc3c(cc2F)c(=O)c(C(=O)O)cn3C2CC2)CC1CN (stereo not drawn) [1.5 hydrate, 7-(4-aminomethyl-3-methyloxyiminopyrrolidin-1-yl)-1-cyclopropyl-6-fluoro-4-oxo-1,4-dihydro-1,8-naphthyridine-3-carboxylic acid methanesulfonate·1.5 hydrate]	–	–	–	–	–	–	–	–	–	–	–	–	–	–	–	–	–	–	–	–	Moisture Content ([1]; hydrate): 4-6%; stability of hydrate towards relative humidity change [20]: stable; equilibrium moisture content ([20]; relative humidity 23 to 64%): around 5%; thermal stability compared with the anhydride ([21]; 70° C., Table 29): the same degree of thermal stability as the anhydride; thermal stability ([21]; 20160 min): 95.80%; thermal stability ([21]; 40320 min): 96.17%; thermal stability [21]: 100%; remaining at 168 h ([21]; thermal stability, 1 week, 70° C.): 97.2%; remaining at 504 h ([21]; thermal stability, 3 weeks, 70° C.): 97.2%
CO/N=C1/CN(c2nc3c(cc2F)c(=O)c(C(=O)O)cn3C2CC2)CC1CN (stereo not drawn) [E-isomer]	–	0.13 (≈ 0.334 µM)	0.031 (≈ 0.0796 µM)	0.25 (≈ 0.642 µM)	0.063 (≈ 0.162 µM)	0.031 (≈ 0.0796 µM)	2 (≈ 5.14 µM)	0.5 (≈ 1.28 µM)	32 (≈ 82.2 µM)	0.5 (≈ 1.28 µM)	0.5 (≈ 1.28 µM)	0.031 (≈ 0.0796 µM)	1 (≈ 2.57 µM)	0.13 (≈ 0.334 µM)	0.063 (≈ 0.162 µM)	16 (≈ 41.1 µM)	0.13 (≈ 0.334 µM)	0.13 (≈ 0.334 µM)	0.13 (≈ 0.334 µM)	0.5 (≈ 1.28 µM)	MIC [14]: 0.25 µg/mL (≈ 0.642 µM); MIC (Escherichia coli 3190Y): 0.016 µg/mL (≈ 0.0411 µM); MIC [15]: 1 µg/mL (≈ 2.57 µM); MIC [16]: 32 µg/mL (≈ 82.2 µM); MIC [17]: 0.063 µg/mL (≈ 0.162 µM); MIC (Escherichia coli 851E): 0.063 µg/mL (≈ 0.162 µM); MIC [18]: 0.031 µg/mL (≈ 0.0796 µM); MIC [19]: 0.25 µg/mL (≈ 0.642 µM)
CON=C1CN(c2nc3c(cc2F)c(=O)c(C(=O)O)cn3C2CC2)CC1CN (stereo not drawn) [4 hydrate, 7-(4-aminomethyl-3-methyloxylminopyrrolidin-1-yl)-1-cyclopropyl-6-fluoro-4-oxo-1,4-dihydro-1,8-naphthyridine-3-carboxylic acid methanesulfonate]	12-13%	–	–	–	–	–	–	–	–	–	–	–	–	–	–	–	–	–	–	–	–
